Test results as given in patent publication US6949679B1, “Polyamine transport inhibitors” (Universite Laval, priority 1998, dated 2005).
Read-outs that look alike come from different tables or passages of the source. Values belong to the molecule of their own block, whether it stands above or below them.

Legend:
[1] = molecular target: polyamine transporter; conditions: ZR-75-1 cells; data annotated a (Lessard et al. 1995); read-out: Km or Ki, spermidine transport; cited from earlier work
[2] = molecular target: polyamine transporter; conditions: ZR-75-1 cells; data annotated a (Lessard et al. 1995); read-out: Km or Ki, putrescine transport; cited from earlier work
[3] = test system: polyamine transporter; test: Inhibition of [14C]spermine uptake in ZR-75-1 cells; type: cell-based, human; conditions: for Ki: this work, read-out: Km or Ki, spermine transport
Procedure: The rate of putrescine and spermidine transport was determined in ZR-75-1 cells incubated in serum-free RPMI 1640 medium as described (Lessard, M., Zhao, C., Singh, S. M. and Poulin, R. 1995. J. Biol. Chem. 270: 1685-1694), using [^3H]putrescine (30 Ci/mol) and [^3H]spermidine (20 Ci/mol), respectively as substrates for a 20 minute-assay period. […] Uptake activity was expressed per amount of DNA as fluorometrically determined using 3,4-diaminobenzoic acid (Simard, J., Dauvois, S., Haagensen, D. E., Lėvesque, C., Mėrand, Y. and Labrie, F. 1990. Endocrinology, 126: 3223-3231). For the determination of spermidine uptake activity in CHO-K1 cells, 80% confluent cell monolayers were rinsed twice with PBS and incubated for 20 minutes at 37° C. in 400 μl of buffer A (20 mM Tris-HCl, pH 7.4; 0.42 mM CaCl2; 0.41 mM MgSO4; 103 mM NaCl; 5.7 mM KCl; 1.1 mM D-glucose) containing 5 μM [^3H]spermidine (20 Ci/mol). Cell cultures were then washed twice with 1 ml PBS containing 5.7 mM sym-norspermidine. Cells were then lysed with 200-μl aliquot of 1 N NaOH and incubated for 30 minutes at 60° C. After neutralization with 200 μl of 1 N HCl, radioactivity was determined from a 250-μl of the cell lysate by scintillation counting. Uptake activity was expressed per amount of total cellular protein as determined by the method of Bradford (Bradford, M. M. 1976. Anal. Biochem. 72: 248-254). Non-specific binding of radioactive substrate was similarly determined in parallel for both cell lines after a 15 second-incubation with 400 μl of ice-cold uptake solution.
(§1) Kinetic analysis of polyamine transport was performed by determining uptake activity in the presence of a 3 μM [^3H]putrescine or 1 μM [^3H]spermidine plus increasing concentrations of nonradioactive substrate. K[…] Ki and Vmax values were then estimated by Lineweaver-Burke analysis. For competitive inhibitors, Ki values were also estimated by measuring uptake activity in the presence of logarithmically increasing concentrations of antagonist, and using the Cheng-Prusoff equation (Cheng, Y.-C. and Prusoff, W. H. 1973. Biochem. Pharmacol. 22: 3099-3108) by iterative curve fitting for a sigmoidal curve. For mixed competitive/noncompetitive inhibition, two methods were used to calculate kinetic constants. First, the equation [drawing 2] where v, s, and i are the transport velocity, substrate concentration and inhibitor concentration respectively, was used to calculate the inhibition constants for inhibitor/carrier complex formation (Ki) and carrier/inhibitor/substrate complex formation (Ki′) (Dixon, M. and Webb, E. C. 1976. Enzymes, 3rd Ed., Academic Press, San Diego, Calif.). Alternatively, the value of Ki for a mixed competitor/non-competitor was estimated from the intersect of equations v^−1 vs i at two different substrate concentrations (Dixon, M. and Webb, E. C. 1976. Enzymes, 3rd Ed., Academic Press, San Diego, Calif.). Intracellular Accumulation
(§2) In order to evaluate the effectiveness of dimeric triamines as polyamine transport inhibitors, we synthesized N,N′-bis(3-aminopropyl),N,N′-bis(4-aminobutyl)cystamine or BABAC (structure 1, FIG. 25; FIG. 31), and its thiol form N-(3-aminopropyl),N-(4-aminobutyl)cysteamine or AAC (FIG. 31) according to Scheme 4 described above (FIG. 30), using spermidine as a precursor polyamine. The ability of BABAC and AAC to inhibit the intracellular uptake of radio-labeled putrescine and spermidine in the ZR-75-1 human breast cancer cell line was then determined according to standard published procedures (Lessard, et al. and Poulin, et al.) Briefly, ZR-75-1 cells were grown for four days in twenty-four well plates in RPMI 1640 medium supplemented with 10% fetal bovine serum.

[4] = Stability in buffered aqueous solution; type: physicochemical; conditions: buffered at pH=7.0
[5] = test system: polyamine transporter; test: Inhibition of [3H]putrescine uptake in ZR-75-1 cells; type: cell-based, human; conditions: for Ki: ZR-75-1 cells
Procedure: (§3) The rate of putrescine and spermidine transport was determined in ZR-75-1 cells incubated in serum-free RPMI 1640 medium as described (Lessard, M., Zhao, C., Singh, S. M. and Poulin, R. 1995. J. Biol. Chem. 270: 1685-1694), using [^3H]putrescine (30 Ci/mol) and [^3H]spermidine (20 Ci/mol), respectively as substrates for a 20 minute-assay period. Spermine uptake was similarly determined, using 1 μM [^14C]spermine (32 Ci/mol) as substrate. Uptake activity was expressed per amount of DNA as fluorometrically determined using 3,4-diaminobenzoic acid (Simard, J., Dauvois, S., Haagensen, D. E., Lėvesque, C., Mėrand, Y. and Labrie, F. 1990. Endocrinology, 126: 3223-3231). For the determination of spermidine uptake activity in CHO-K1 cells, 80% confluent cell monolayers were rinsed twice with PBS and incubated for 20 minutes at 37° C. in 400 μl of buffer A (20 mM Tris-HCl, pH 7.4; 0.42 mM CaCl2; 0.41 mM MgSO4; 103 mM NaCl; 5.7 mM KCl; 1.1 mM D-glucose) containing 5 μM [^3H]spermidine (20 Ci/mol). Cell cultures were then washed twice with 1 ml PBS containing 5.7 mM sym-norspermidine. Cells were then lysed with 200-μl aliquot of 1 N NaOH and incubated for 30 minutes at 60° C. After neutralization with 200 μl of 1 N HCl, radioactivity was determined from a 250-μl of the cell lysate by scintillation counting. Uptake activity was expressed per amount of total cellular protein as determined by the method of Bradford (Bradford, M. M. 1976. Anal. Biochem. 72: 248-254). Non-specific binding of radioactive substrate was similarly determined in parallel for both cell lines after a 15 second-incubation with 400 μl of ice-cold uptake solution.
as §1, §2

[6] = test system: ZR-75-1 cells; test: Effect on ZR-75-1 cell proliferation (11 days, DNA content); type: cell-based, human; conditions: 50 μM
Procedure: (§4) For growth studies, ZR-75-1 cells were cultured in MEZR medium or in phenol red-free RPMI 1640 supplemented with 2 mM L-glutamine, 1 mM sodium pyruvate, 15 mM Hepes, antibiotics, 1 nM 17β-estradiol, 0.5 μg of bovine insulin per ml and 5% (v/v) charcoal-treated fetal bovine serum (SD medium), as indicated in the text. When polyamines or polyamine analogs were added to serum-containing media, 1 mM aminoguanidine was added to inhibit bovine serum amine oxidase (BSAO) activity (Morgan, D. M. L. 1989, in The Physiology of Polyamines (Bachrach, U., and Heimer, Y. M. eds) Vol. I, pp. 203-229, CRC Press, Boca Raton). The effect of the transport inhibitors on cell growth was measured by incubating ZR-75-1 cells for 11 days in medium supplemented with antagonist, polyamines and/or 1 mM DFMO as indicated, followed by colorimetric determination of DNA content with 3,4-diaminobenzoic acid (Simard, J., Dauvois, S., Haagensen, D. E., Lėvesque C., Mėrand, Y. and Labriė, F. 1990. Endocrinology 126: 3223-3231). Medium was changed every other day in these experiments because of the slow reaction of the compound with an unknown component present in the IMEM and RPMI 1640 medium formulation.
The biocompatibility of DESC, MESC, and DEASC was thus evaluated during a long-term (11-day) incubation with ZR-75-1 cells grown in RPMI 1640 containing 10% (v/v) FBS in the absence and presence of 1 mM aminoguanidine. […] Weak growth inhibition caused by the mixed MESC-cysteamine disulfide, however, apparently involved degradation by a copper amine oxidase.

[7] = test system: polyamine transporter; test: Inhibition of [3H]spermidine uptake in ZR-75-1 cells; type: cell-based, human; conditions: FIG. 32, 20 μM and 3 μM substrate, respectively, read-out: Apparent Ki, spermidine uptake
Procedure: as §3
as §1, with “Alternatively, the value of Ki for a mixed competitor/non-competitor was estimated from the intersect of equations v^−1 vs i at two different substrate concentrations (Dixon, M. and Webb, E. C. 1976. Enzymes, 3rd Ed., Academic Press, San Diego, Calif.). Intracellular Accumulation” left out
as §2

[8] = MESC: amino group neighboring the amide linkage; cited from earlier work
[9] = test system: polyamine transporter; test: Inhibition of [14C]spermine uptake in ZR-75-1 cells; type: cell-based, human; conditions: 3μM substrate (Example 11), read-out: Ki, [14C]spermine transport
[10] = in vitro; conditions: human, ZR-75-1 cells
Text: FIG. 34 represents the relative cytotoxicity of sym-norspermidine (NSpd), BABAC and TADAX in ZR-75-1 human breast cancer cells. Data are the mean±SD of triplicate determinations from a representative experiment.

[11] = test system: ZR-75-1 cells; test: Intracellular accumulation of inhibitor and polyamine contents (HPLC) in ZR-75-1 cells; type: cell-based, human; conditions: ZR-75-1 cells, 6-hour incubation, HPLC of cell extracts
[12] = test system: ZR-75-1 cells; test: Reversal of DFMO-induced growth inhibition by exogenous spermidine; type: cell-based, human; conditions: 1 mM DFMO
Procedure: as §4, with “3223-3231).” for “3223-3231). Medium was changed every other day in these experiments because of the slow reaction of the compound with an unknown component present in the IMEM and RPMI 1640 medium formulation.”
This possibility was assessed by comparing the ability of DESC to prevent the reversal of DFMO-induced growth inhibition by increasing concentrations of exogenous spermidine.

[13] = molecular target: polyamine transporter; conditions: ZR-75-1 cells; data annotated a (Lessard et al. 1995); read-out: Km or Ki, spermine transport; cited from earlier work

Structure (SMILES): NCCCCN [Putrescine, 1,4-butane-diamine]
Ki [1]: 125000 ± 29000 nM | Ki [2]: 3700 ± 400 nM | Ki [3]: 230 ± 130 nM

Stability in aqueous solutions [4]: stable for months
Structure (SMILES): NCCCNCCCC(NCCCN)C(=O)NCCSSCCN (stereo not shown) [DEASC, N-[2,2′-dithio(ethyl,1-aminoethyl)]spermine-5-carboxamide]
Ki for [14C]spermine transport, fold higher than that of DESC ([3]; FIG. 2): about 5 fold | Ki [3]: 16000 ± 3000 nM | Mode of inhibition of [3H]putrescine uptake ([5]; Lineweaver-Burke, DESC up to 100 μM, MESC up to 200 μM): mixed competitive/non-competitive type | Ki ([5]; mixed competitive/non-competitive model, read-out: Ki′ (carrier/inhibitor/putrescine complex formation)): 4100 nM | Ki ([5]; this work, DEASC: Ki of mixed competitive/non-competitive model, read-out: Ki, putrescine transport): 5300 ± 600 nM | Inhibition of cell proliferation ([6]; completely prevented by aminoguanidine): 20%

Structure (SMILES): NCCCNCCCCNCCCN [Spermine, N,N′-bis-[3-aminopropyl]-1,4-butanediamine, reference compound]
Ki [7]: 400 nM | Ki [2]: 330 ± 20 nM | Km ([3]; 3μM substrate (Example 11), read-out: Apparent Km, spermine transport): 0.6 µM | Ki [3]: 200 ± 60 nM | pKa of secondary amino group of the spermine head [8]: 8.9-9.8 | Ki ([5]; FIG. 32, 20 μM and 3 μM substrate, respectively, read-out: Apparent Ki, putrescine uptake): 74.5 nM | Effect on cell growth ([6]; with or without 1 mM aminoguanidine): acutely cytotoxic

Structure (SMILES): NCCCN(CCCN)Cc1ccc(CN(CCCN)CCCN)cc1 [TADAX, N,N,N′,N′-tetrakis(3-aminopropyl)-p-xylylenediamine]
Ki [9]: 1500 nM | IC50 [10]: > 500000 nM | Accumulation of the compound in cells [11]: no detectable accumulation

Structure (SMILES): NCCCCNCCCN [Spermidine, N-3[aminopropyl]-1,4-diaminobutane]
Spermidine concentration completely reversing DFMO-induced growth inhibition ([12]; 11 days): 0.3 µM | activity at 0.1 µM ([12]; Homo sapiens, ZR-75-1, 0.1 μM spermidine, read-out: Growth of DFMO-treated cells restored, % of control value): 78% | Ki [1]: 490 ± 150 nM | Ki [2]: 230 ± 50 nM | Ki [13]: 370 ± 90 nM
